This assay has as its target T1, RORγ (Homo sapiens, UniProt P51449).
T1 construct: expressed in transfected cells; host or cells: 293FT cells (Invitrogen), expression vector pFN26A (Promega)
T1 sequence (P51449 269-508 limits assumed): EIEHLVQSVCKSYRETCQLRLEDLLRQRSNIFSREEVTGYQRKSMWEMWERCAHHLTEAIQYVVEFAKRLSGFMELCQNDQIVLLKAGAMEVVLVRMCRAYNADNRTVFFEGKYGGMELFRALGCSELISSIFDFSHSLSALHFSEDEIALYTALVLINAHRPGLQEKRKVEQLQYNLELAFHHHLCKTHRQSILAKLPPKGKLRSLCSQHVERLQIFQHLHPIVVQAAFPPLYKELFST
In words: RORγ GAL4 reporter gene assay (luciferase readout, 293FT cells). The conditions noted are these: inhibition of RORγ (GAL4-RORγ-LBD) in transfected 293FT cells, luciferase signal, overnight incubation; read-out: mean pIC50 (converted). Type of assay: cell-based. On the procedure:
RORγ GAL4 Reporter Gene Assay
Example inhibitors 1-47 were tested for their ability to inhibit RORγ activity in a RORγ GAL4 reporter gene assay. The assay procedure and results are described below.
RORγ GAL4 Reporter Gene Assay Description
A GAL4 one-hybrid reporter system employing luciferase readout was established to determine inhibition of RORγ in 293FT cells. The RORγ ligand-binding domain (LBD) was fused to the yeast GAL4 DNA binding domain (DBD) and placed under the control of the human cytomegalovirus (CMV) immediate early promoter, using expression vector pFN26A (Promega) and standard recombinant DNA cloning methods. To serve as a control in the assay, a similar vector was generated in which the GAL4-DBD was fused to Herpes simplex virus protein 16 (VP16), a constitutive transcriptional activator.
To monitor the inhibitory effect of compounds on RORγ, a transcriptional reporter construct was used. The pGL4.35 vector (Promega) contains nine copies of the GAL4 Upstream Activator Sequence (UAS). This sequence drives the transcription of the luciferase reporter gene luc2P in response to binding of a fusion protein containing the GAL4 DNA binding domain, as for example expressed by the GAL4-RORγ-LBD and GAL4-VP16 expression vectors described above. To allow a GAL4 fusion protein to drive the expression of the luciferase reporter, the pGL4.35 expression vector and the appropriate GAL4 fusion protein expression vector were bulk transfected in the 293FT cells using standard transfection techniques.
The day after transfection, cells were plated into 96 well plates, test compound was added and the plates were incubated overnight. Subsequently, the firefly luciferase activity was quantified using luciferase detection reagent and luminescence readout.
Detailed Assay Description
293FT cells (Invitrogen) were transfected with a GAL4 fusion protein expression vector (as described above) and the transcriptional reporter construct (pGL4.35, Promega). 60 μL of TransIT-293 transfection reagent (Mirus Bio) was added drop wise to 1500 μl Opti-MEM I Reduced Serum Medium (Invitrogen) and incubated at room temperature (RT) for 5 to 20 minutes. 1500 μL of this reagent mixture was added to 5 μg of GAL4 fusion protein expression vector and 5 μg of the transcriptional reporter construct, and incubated at RT for 20 minutes.
To harvest 293FT cells from a T75 flask, first the culture medium was taken off the cells. Subsequently, the cells were washed with Phosphate Buffered Saline (PBS) (Lonza), after which the PBS was removed. To dissociate the cells, 1 ml of TrypLE Express (Invitrogen) was added to the flask, followed by incubation at RT until the cells visually started to detach. Cells were collected in 5 mL of assay medium (DMEM culture medium (Lonza), 10% dialyzed FBS (Invitrogen) and Pen/Strep (Lonza)) to achieve a single cell suspension. 10×10^6 cells were spun down and re-suspended in 10 mL of assay medium. Subsequently, the cell suspension was added to the transfection mix tube, and then transferred as a whole to a T75 flask (Greiner), followed by overnight (16-24 hours) incubation at 37° C. and 5% CO2.
For compound screening, the cells were harvested (as described above) and counted. 13×10^6 cells were spun down, the supernatant was aspirated and the cells were re-suspended in 17.3 mL of assay medium obtaining a cell suspension of 0.75×10^6 cells/mL. 80 μL of cell suspension (60,000 cells) was plated per well into a white, flat bottom, tissue culture treated, 96 well screening plates (Greiner).
Test compounds were diluted, starting from a 10 mM dimethylsulf oxide (DMSO) stock solution, to serial dilutions in DMSO at 500× the final test concentration. Subsequently, these solutions were diluted to 5× the final test concentration in two 10-fold-dilution steps in assay medium. The final DMSO concentration of the 5× test compound solution was 1%. […]

For `Cc1ccnn1-c1ccc(NC(=O)Cc2ccc(S(=O)(=O)CC3CC3)cc2)cc1` [Example 41, 2-(4-cyclopropylmethanesulfonylphenyl)-N-[4-(5-methyl-1H-pyrazol-1-yl)phenyl]acetamide], the IC50 was no more than 1000 nM.

As for `Cc1cnn(-c2ccc(NC(=O)Cc3ccc(S(=O)(=O)CC4CC4)cc3)cc2)c1` [Example 42, 2-(4-cyclopropylmethanesulfonylphenyl)-N-[4-(4-methyl-1H-pyrazol-1-yl)phenyl]acetamide], the IC50 was no more than 1000 nM.

As to `O=C(Cc1ccc(S(=O)(=O)CC2CC2)cc1)Nc1ccc(-c2cnco2)cc1` [Example 43, 2-(4-cyclopropylmethanesulfonylphenyl)-N-[4-(1,3-oxazol-5-yl)phenyl]acetamide], the IC50 is no more than 1000 nM.

On to `O=C(Cc1ccc(S(=O)(=O)CC2CC2)cc1)Nc1ccc(-n2cccn2)cc1` [Example 44, 2-(4-cyclopropylmethanesulfonylphenyl)-N-[4-(1H-pyrazol-1-yl)phenyl]acetamide], for which the IC50 was no more than 1000 nM.

In the case of `O=C(Cc1ccc(S(=O)(=O)CC2CC2)cc1)Nc1ccc(-n2cncn2)cc1` [Example 46, 2-(4-cyclopropylmethanesulfonylphenyl)-N-[4-(1H-1,2,4-triazol-1-yl)phenyl]acetamide], the IC50 was no more than 1000 nM.

Take `O=C(Cc1ccc(S(=O)(=O)CC2CC2)cc1)Nc1ccc(-c2ncon2)cc1` [Example 47, 2-(4-cyclopropylmethanesulfonylphenyl)-N-[4-(1,2,4-oxadiazol-3-yl)phenyl]acetamide]: the IC50 is no more than 1000 nM.

Source of the values: patent US10259782B2, “ROR gamma (RORγ) modulators” (LEAD PHARMA HOLDING B.V., priority 2015, dated 2019).
